Reference: patent US6369225B1, “Compounds having activity as inhibitors of cytochrome P450RAI” (Allergan Sales, Inc., priority 2000, dated 2002)

How the values were obtained:
skin of hairless mice = experiment: topical skin irritation test in hairless mice; assay type: in vivo, mouse; settings: topical in acetone, once daily days 1 through 5, mean ±SD, range 0-21
Text: Mice were housed individually throughout the dosing period.
Doses are disclosed as nmol/25 g.
The grading scale used is as follows:
Values can range from 0-9.
Values can range from 0-8.

P450RAI-1 = biological target: T1, P450RAI-1 (Homo sapiens, UniProt O43174); experiment: P450RAI-1 cell-based inhibitor assay; settings: P450RAI-1 stably transfected HeLa cells, [3H]-RA metabolism, 3 hours at 37° C.; read-out: P450RAI INHIBITION DATA INTACT HELA IC50
T1 construct: expressed in transfected cells; host or cells: HeLa cells, stably transfected, hygromycin selection
T1 sequence (O43174 1-497): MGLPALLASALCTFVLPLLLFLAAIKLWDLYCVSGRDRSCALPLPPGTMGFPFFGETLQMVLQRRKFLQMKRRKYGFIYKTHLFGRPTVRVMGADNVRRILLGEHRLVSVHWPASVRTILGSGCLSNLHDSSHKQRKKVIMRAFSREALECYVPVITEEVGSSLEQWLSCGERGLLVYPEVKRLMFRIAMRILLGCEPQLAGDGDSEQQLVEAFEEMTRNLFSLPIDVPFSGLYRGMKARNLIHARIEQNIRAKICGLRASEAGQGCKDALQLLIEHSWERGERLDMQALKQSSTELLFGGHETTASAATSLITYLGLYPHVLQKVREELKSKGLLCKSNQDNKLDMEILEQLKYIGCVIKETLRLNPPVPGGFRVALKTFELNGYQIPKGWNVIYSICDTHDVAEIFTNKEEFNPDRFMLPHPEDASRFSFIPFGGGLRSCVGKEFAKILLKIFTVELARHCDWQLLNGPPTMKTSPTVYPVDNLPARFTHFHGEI
Method: P450RAI-1 stably transfected HeLa cells are maintained in […] tissue culture dishes in Modified Eagle's Medium (MEM) containing 10% Fetal Bovine Serum (FBS) and 100 μg/ml hygromycin. Exponentially growing cells are harvested by incubating in trypsin. Cells are then washed with 1× Phosphate Buffered Saline (PBS) and plated in a 48-well plate at 5×10^5 cells in 0.2 ml MEM medium containing 10% FBS and 0.05 μCi[^3H]-RA in the presence or absence of increasing concentrations of the test compounds. The compounds are diluted in 100% DMSO and then added in triplicate wells at either 10, 1 or 0.1 μM final concentration. As a positive control for RA metabolism inhibition, cells are also incubated with ketoconazole at 100, 10 and 1 μM. Cell are incubated for 3 hours at 37° C. […] The water soluble radioactivity is quantified using a β-scintillation counter. IC50 values represent the concentration of inhibitor required to inhibit all-trans-RA metabolism by 50 percent and are derived manually from log-transformed data.

RARγ = biological target: T2, RARγ (Homo sapiens, UniProt P13631); experiment: ligand binding assay, RARγ; settings: Kd line of EC50/(EFFICACY)/Kd, read-out: RAR Kd γ
T2 sequence (P13631 1-454): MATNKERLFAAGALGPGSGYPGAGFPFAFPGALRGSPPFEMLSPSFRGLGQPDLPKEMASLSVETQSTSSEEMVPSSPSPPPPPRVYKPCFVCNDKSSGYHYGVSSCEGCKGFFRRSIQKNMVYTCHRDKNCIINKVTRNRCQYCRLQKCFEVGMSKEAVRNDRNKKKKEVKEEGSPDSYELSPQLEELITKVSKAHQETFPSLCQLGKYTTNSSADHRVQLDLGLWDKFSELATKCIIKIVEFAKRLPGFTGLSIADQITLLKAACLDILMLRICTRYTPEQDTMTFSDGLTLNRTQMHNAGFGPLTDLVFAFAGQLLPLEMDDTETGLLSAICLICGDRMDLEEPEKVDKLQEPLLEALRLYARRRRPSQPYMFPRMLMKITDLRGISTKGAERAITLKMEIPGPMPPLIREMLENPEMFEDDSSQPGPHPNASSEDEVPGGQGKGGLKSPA
Text: (§1) Assays described below measure the ability of a compound to bind to, and/or activate various retinoid receptor subtypes. When in these assays a compound binds to a given receptor subtype and activates the transcription of a reporter gene through that subtype, then the compound is considered an agonist of that receptor subtype. […] In the below described assays the ability of the compounds to bind to RARα, RARβ, RARγ, RXRα, RXRβ and RXRγ receptors, and the ability or inability of the compounds to activate transcription of a reporter gene through these receptor subtypes can be tested.
(§2) A holoreceptor transactivation assay and a ligand binding assay which measure the antagonist/agonist like activity of the compounds of the invention, or their ability to bind to the several retinoid receptor subtypes, respectively, are described in published PCT Application No. WO WO93/11755 (particularly on pages 30-33 and 37-41) published on Jun. 24, 1993, the specification of which is also incorporated herein by reference. A detailed experimental procedure for holoreceptor transactivations has been described by Heyman et al. Cell 68, 397-406, (1992); Allegretto et al. J. Biol. Chem. 268, 26625-26633, and Mangelsdorf et al. The Retinoids: Biology, Chemistry and Medicine, pp 319-349, Raven Press Ltd., New York, which are expressly incorporated herein by reference. The results obtained in this assay are expressed in EC50 numbers, as they are also in the chimeric receptor transactivation assay. The results of ligand binding assay are expressed in Kd numbers. (See Cheng et al. Biochemical Pharmacology Vol. 22 pp 3099-3108, expressly incorporated herein by reference.)
(§3) The results if the ligand binding assay for several preferred compounds of the invention are included in Table 1.

RARα = biological target: T3, RARα (Homo sapiens, UniProt P10276); experiment: ligand binding assay, RARα; settings: Kd line of EC50/(EFFICACY)/Kd, read-out: RAR Kd α
T3 sequence (P10276 1-462): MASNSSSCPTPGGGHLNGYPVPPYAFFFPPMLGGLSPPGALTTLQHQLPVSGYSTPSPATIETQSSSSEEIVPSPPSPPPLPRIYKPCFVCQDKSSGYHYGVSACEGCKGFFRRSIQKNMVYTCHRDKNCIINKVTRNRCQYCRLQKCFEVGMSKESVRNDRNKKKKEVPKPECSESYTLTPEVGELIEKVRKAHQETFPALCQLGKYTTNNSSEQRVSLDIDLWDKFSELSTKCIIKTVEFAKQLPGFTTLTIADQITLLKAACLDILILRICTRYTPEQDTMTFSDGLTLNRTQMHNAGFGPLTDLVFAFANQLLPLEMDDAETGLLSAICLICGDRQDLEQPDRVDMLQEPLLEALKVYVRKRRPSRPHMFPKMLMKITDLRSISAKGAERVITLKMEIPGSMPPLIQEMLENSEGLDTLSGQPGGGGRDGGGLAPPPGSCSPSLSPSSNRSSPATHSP
Text: as §1, §2, §3

RARβ = biological target: T4, RARβ (Homo sapiens, UniProt P10826); experiment: ligand binding assay, RARβ; settings: Kd line of EC50/(EFFICACY)/Kd, read-out: RAR Kd β
T4 sequence (P10826 1-455): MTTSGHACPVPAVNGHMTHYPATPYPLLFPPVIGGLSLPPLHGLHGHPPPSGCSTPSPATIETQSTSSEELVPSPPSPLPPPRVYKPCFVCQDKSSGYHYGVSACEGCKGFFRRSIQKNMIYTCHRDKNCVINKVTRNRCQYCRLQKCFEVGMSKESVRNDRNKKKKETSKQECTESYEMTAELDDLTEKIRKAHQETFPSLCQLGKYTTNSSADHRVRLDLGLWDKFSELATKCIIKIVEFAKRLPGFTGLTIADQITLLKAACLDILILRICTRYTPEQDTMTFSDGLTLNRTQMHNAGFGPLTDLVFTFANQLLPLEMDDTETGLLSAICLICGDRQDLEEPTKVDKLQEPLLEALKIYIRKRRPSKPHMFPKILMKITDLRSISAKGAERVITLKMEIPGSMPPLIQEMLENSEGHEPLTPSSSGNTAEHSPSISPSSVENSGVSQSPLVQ
Text: as §1
as §2, with “A detailed experimental procedure for holoreceptor transactivations has been described by Heyman et al. Cell 68, 397-406, (1992); Allegretto et al. J. Biol. Chem. 268, 26625-26633, and Mangelsdorf et al. The Retinoids: Biology, Chemistry and Medicine, pp 319-349, Raven Press Ltd., New York, which are expressly incorporated herein by reference.” left out

Row | SMILES | Cutaneous Toxicity Score (Blackjack Score) (skin of hairless mice; 100 nmole (nmol/25 g)) | Cutaneous Toxicity Score (Blackjack Score) (skin of hairless mice; 300 nmole (nmol/25 g)) | Cutaneous Toxicity Score (Blackjack Score) (skin of hairless mice; 1000 nmole (nmol/25 g)) | IC50 (P450RAI-1) | Kd (RARγ) | Kd (RARα) | Kd (RARβ)
1 | CC1(C)CN(C2CC2)Cc2ccc(C#Cc3ccc(CC(=O)O)c(F)c3)cc21 [Compound 22, [4-(2-Cyclopropyl-4,4-dimethyl-1,2,3,4-tetrahydro-isoquinoline-6-yl-ethynyl)-2-fluoro-phenyl]-acetic Acid] | 0 ± 0 | 0 ± 0 | 1 ± 1 | 1.6 µM |  |  | 
2 | CC1(C)CC(C)(C)c2cc(C#Cc3ccc(CC(=O)O)cc3)cc(C3CC3)c2O1 [Compound 36, [4-(8-Cyclopropyl-2,2,4,4-tetramethyl-chroman-6-yl-ethynyl)phenyl]acetic Acid] | 1 ± 1 |  | 11 ± 0 | 0.033 µM | 0.492 µM | 13 µM | 4.9 µM
3 | CC1(C)CC(C)(C)c2cc(C#Cc3ccc(CC(=O)O)c(F)c3)cc(C3CC3)c2O1 [Compound 38, [4-(8-Cyclopropyl-2,2,4,4-tetramethyl-chroman-6-yl-ethynyl)-2-fluorophenyl]acetic Acid] | 1 ± 1 |  | 10 ± 1 | 0.025 µM | 2.88 µM |  | 5.32 µM
4 | CC1(C)CC2(CC2)Oc2c(C3CC3)cc(C#Cc3ccc(CC(=O)O)cc3)cc21 [Compound 48, Benzeneacetic Acid, 4-[(8-cyclopropyl-3,4-dihydro-4,4-dimethylspiro[2H-1-benzopyran-2,1′-cyclopropane]-6-yl)ethynyl]-] | 1 ± 1 | 3 ± 1 | 7 ± 2 | 0.03 µM |  |  | 
5 | CC1(C)CC2(CC2)Oc2c(C3CC3)cc(C#Cc3ccc(CC(=O)O)c(F)c3)cc21 [Compound 50, 4-[(8-Cyclopropyl-3,4-dihydro-4,4-dimethylspiro[2H-1-benzopyran-2,1′-cyclopropane]-6-yl)ethynyl]-2-fluoro-benzeneacetic Acid] | 1 ± 0 | 3 ± 2 | 8 ± 2 | 0.014 µM |  |  | 
6 | CC1(C)CC2(CC2)Oc2c(C3CC3)cc(C(=O)Oc3ccc(CC(=O)O)cc3)cc21 [Compound 58, Spiro[2H-1-benzopyran-2,1′-cyclopropane]-6-carboxylic Acid, 8-cyclopropyl-3,4-dihydro-4,4-dimethyl-, 4-(carboxymethyl)phenyl Ester] | 0 ± 0 | 0 ± 0 | 0 ± 0 | 0.18 µM |  |  | 
7 | CC1(C)CCC(n2ccnc2)c2ccc(C#Cc3ccc(CC(=O)O)cc3)cc21 (stereo not shown) [Compound 137, [4-(5-Imidazol-1-yl-8,8-dimethyl-5,6,7,8-tetrahydro-naphthalen-2-yl-ethynyl)-phenyl]-acetic Acid] | 1 ± 1 | 1 ± 1 | 5 ± 2 | 0.1 µM |  |  | 
